Data taken from patent US20210163453A1, “DERIVATIVES OF PAPAVERINE THAT ARE EFFECTIVE HYPOXIC TUMOR RADIOSENSITIZERS” (Ohio State Innovation Foundation, priority 2018, published 2021).
Like-named read-outs stand apart in the source and are kept apart here.

Key:
MP2 tumors = test: ODD-luciferase in vivo oxygen reporter (bioluminescence imaging); parameters: species or system mice; details: orthotopic MP2 CMVluc tumors
Description: FIGS. 14A-14E summarize results obtained using ODD-luciferase as an in vivo oxygen reporter. […] (n=3-4, P<0.05).
Use of ODD-luciferase as an in vivo oxygen reporter. We have fused the oxygen dependent degradation domain (ODD) of the HIF1a protein to the luciferase reporter protein. This fusion protein is expressed in tumor cells and is stable and reports well in hypoxia, but is destroyed by cellular machinery when cells are well oxygenated (FIG. 14A). These cells were used to grow tumors in immune-deficient mice and the animals were exposed either 95% oxygen/5% CO2 (carbogen) or medical air and the tumor bioluminescence imaged by IVIS 30 minutes post injection. Increasing oxygen breathing decreases reporter signal (FIG. 14B). These animals were then treated with either papaverine or vehicle (FIG. 14C) or SMV32 or vehicle (FIG. 14E).

[1] = system: NDUFV1 KO NDI1 flank xenografts; test: Tumor growth delay of NDUFV1 KO NDI1 flank xenografts with XRT; format: in vivo, mice; details: 2 mg/kg PPV 35 minutes prior to 8 Gy
Description: FIGS. 5A-5E show papaverine radiosensitizes through complex I inhibition. […] Values represent mean viable cells+−SD. […] Values are mean+−SD. […] P value was calculated with two-tailed two-sample t test. […] Curves represent mean tumor volumes+−SEM.
FIGS. 6A-6E show uncropped western blot membrane used for FIG. 5A showing NDUFV1 and PDH E1α levels (FIG. 6A) before probing for NDI1 (FIG. 6B). […] Values represent mean OCR from at least 5 replicates+−SD. […] Curves represent averaged colony counts+−SD. […] Values are mean tumor volumes+−SEM.
Tumor Growth kinetics. 2×10^6 EO771 or 5×10^6 A549 cells were injected s.c. into the flanks of 6-week old female immunocompetent C57/B6 (EO771) or immunocompromised nu/nu (A549) mice. Caliper measurements of opposing diameter were used to calculate the tumor volumes. Upon reaching […], the tumors were visualized by cone beam CT and treatment plans calculated using SARRP software. […] Tumor volumes were measured until the post treatment volume increased 3-fold. Error bars represent standard deviation.

EO771 cells = format: cell-based, Murine; details: for competition with rotenone on OCR: PPV given before rotenone; for inhibition of oxygen consumption (OCR), effective concentration (words): real time Seahorse XF dose response
Description: Error bars represent standard deviation.
FIGS. 2A-2D are OCR measurements and cell viability assessments. FIG. 2A-2B are representative of OCR measurement in competition assay between PPV and complex I inhibitors piericidin A (FIG. 2A) and capsaicin (FIG. 2B). Values represent the means+−SD. […] Bar charts represent mean of viable cells in duplicates+−standard deviation.
(§1) Seahorse analysis of the OCR. Oxygen consumption rate (OCR) was measured using Seahorse XF96 Flux Analyzer (Agilent Technologies). The cells were seeded to attach overnight, wells were washed with pre-warmed XF Calibrant (Agilent Technologies) and the replaced with unbuffered Assay Medium (pH 7.4, 5 mM glucose, 1 mM L-glutamine). The plates were incubated at 37° C. in a CO2-free incubator for 2 hours prior to assay. For succinate rescue assay, cells were permeabilized using XF Plasma Membrane Permeabilizer Reagent (XF PMP, Agilent Technologies) according to the manufacturer's instructions. The OCR rate was measured in 1× Mitochondrial Assay Solution (MAS) (70 mM sucrose, 220 mM mannitol, 10 mM KH2PO4, 5 mM MgCl2, 2 mM Hepes, 0.6% (w/v) fatty acid-free BSA and 1 mM EGTA; pH 7.4). After baseline oxygenation was established, 1 μM rotenone or 10 μM PPV was injected at time A, followed by 5 mM succinate at time B. Error bars represent standard deviation. For the washout experiment, EO771 cells were seeded overnight, then treated with 10 μM PPV or 1 μM rotenone 3 hours prior to OCR measurement. Media was replaced 1 and 2 hours before measurement and OCR reported.

[2] = system: oxygen consumption (mitochondrial function); test: Seahorse XF analysis of oxygen consumption in vitro, cell line not stated; format: cell-based
Description: as §1

[3] = system: A549 NDUFV1 KO NDI1 cells; format: cell-based, Human; details: 10 μM papaverine or 1 μM rotenone
[4] = cited from earlier work
PDE10A = target: T1, PDE10A (Homo sapiens, UniProt Q9Y233); test: PDE10A enzymatic assay (PDE10A activity assay kit, BPS Bioscience); format: biochemical
T1 construct: purchased BPS Bioscience
T1 sequence (Q9Y233 267-1055): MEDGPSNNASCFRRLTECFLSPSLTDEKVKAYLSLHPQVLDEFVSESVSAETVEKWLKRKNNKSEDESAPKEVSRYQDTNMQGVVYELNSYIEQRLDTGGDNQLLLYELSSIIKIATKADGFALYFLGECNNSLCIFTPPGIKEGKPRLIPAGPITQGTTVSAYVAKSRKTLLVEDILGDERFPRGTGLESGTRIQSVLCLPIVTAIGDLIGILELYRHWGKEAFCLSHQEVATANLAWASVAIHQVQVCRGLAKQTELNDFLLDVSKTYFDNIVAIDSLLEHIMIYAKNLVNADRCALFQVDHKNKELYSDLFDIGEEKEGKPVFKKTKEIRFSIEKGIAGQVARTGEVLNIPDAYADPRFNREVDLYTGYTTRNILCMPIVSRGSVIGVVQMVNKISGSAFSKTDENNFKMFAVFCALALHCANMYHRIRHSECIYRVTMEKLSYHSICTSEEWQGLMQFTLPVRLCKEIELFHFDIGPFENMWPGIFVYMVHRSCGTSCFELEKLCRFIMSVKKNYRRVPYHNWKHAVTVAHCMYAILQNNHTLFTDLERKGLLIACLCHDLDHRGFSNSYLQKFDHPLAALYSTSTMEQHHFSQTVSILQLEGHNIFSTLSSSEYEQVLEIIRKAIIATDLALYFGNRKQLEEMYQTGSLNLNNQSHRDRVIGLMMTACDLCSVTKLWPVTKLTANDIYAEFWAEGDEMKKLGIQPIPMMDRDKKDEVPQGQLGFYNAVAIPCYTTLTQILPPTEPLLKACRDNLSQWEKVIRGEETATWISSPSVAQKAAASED
Description: FIGS. 7A-7D show OCR and cellular toxicity data. […] Bars represent mean OCR and PDE10 inhibitory activities from at least 5 (OCR) or 3 (PDE) replicates. All experiments were repeated at least twice. […] Values are mean+−SEM. […]
The structure activity relationship of PPV relative to two assays was assessed: inhibition of cellular OCR by Seahorse, and inhibition of PDE10A by purified enzyme activity in multiwell plate (PDE10A activity assay kit, BPS Bioscience). […] These lead compounds were synthesized from commercial precursors and purified on silica gel column.

| SMILES | CMV luciferase (non-hypoxia responsive) control signal (MP2 tumors) | radiation growth delay with drug [1] | efficiency at rotenone binding pocket relative to rotenone (EO771 cells) | competition with rotenone on OCR (EO771 cells) | competition with rotenone on OCR (EO771 cells; listed as papaverine) | interaction with complex 1 inhibitors piericidin A or capsaicin (EO771 cells; competition assay) | inhibition of oxygen consumption (OCR), effective concentration (words) (EO771 cells) | inhibition of oxygen consumption (OCR), effective concentration (words) (EO771 cells; listed as Papaverine) | inhibition of oxygen consumption / mitochondrial function in vitro [2] | response of mitochondria (OCR) to drug [3] | expected half-life ([4]; Ritschel et al.) [h] | half-life, cleared from the serum ([4]; in vivo) [h] | IC20 (PDE10A; PDE10A2 enzymatic assay, n=3 replicates, read-out: PDE IC20 (PDE10A IC20)) [µM] | Inhibitory activity PDE10A % of PPV (PDE10A; PDE10A inhibition at 1 μM, normalized to PPV) | PDE10 activity compared to PPV (PDE10A; compared to PPV) [%] |
| --- | --- | --- | --- | --- | --- | --- | --- | --- | --- | --- | --- | --- | --- | --- | --- |
| COc1ccc(Cc2nccc3cc(OC)c(OC)cc23)cc1OC [PPV, papaverine] | did not show any change | resistant to PPV dependent increase in radiation growth delay | approximately 100 × lower efficiency | block the activity of the classical complex 1 inhibitor rotenone | blocked rotenone's inhibitory activity | no interaction | effective at low micromolar concentrations | rapidly inhibited oxygen consumption at low micromolar concentrations | effective at inhibiting oxygen consumption | resistant | 1.5 to 2 | 1.5 to 2 |  |  |  |
| COc1cc2ccnc(Cc3cccc4ccccc34)c2cc1OC [SMV-32] |  |  |  |  |  |  |  |  |  |  |  |  | 12 | 38.66 % of PPV | 40 |
